Legend:
Format in all cases: in vivo
[1] = tested on: ducksalad (Heteranhera limosa); assay: Test B flooded paddy test, visual plant response rating; settings: 250 g ai/ha, Flood, applied to paddy water, 2-leaf stage, evaluated after 13 to 15 days
How it was run: (§1)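 Seedlings at 2 leaves; compound into paddy water (3 cm flood, maintained); 13–15 d greenhouse; visual score relative to controls.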

[2] = tested on: barnyardgrass (Echinochloa crus-galli); assay: as above; settings: 250 g ai/ha, Flood, applied to paddy water, 2-leaf stage, evaluated after 13 to 15 days
How it was run: as §1

[3] = tested on: sedge, umbrella (small-flower umbrella sedge, Cyperus difformis); assay: as above; settings: 250 g ai/ha, Flood, applied to paddy water, 2-leaf stage, evaluated after 13 to 15 days
How it was run: as §1

rice (Oryza sativa) = assay: as above; settings: 250 g ai/ha, Flood, applied to paddy water, 2-leaf stage, evaluated after 13 to 15 days
How it was run: as §1

[4] = tested on: barnyardgrass (Echinochloa crus-galli); assay: Test A preemergence, visual plant response rating; settings: for Barnyardgrass plant response rating: 125 g ai/ha, preemergence, 0 to 100 scale, 0 no effect, 100 complete control; for Barnyardgrass plant response rating (0 to 100 scale): 500 g ai/ha Preemergence, approx. 10 days
How it was run: (§2)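 Compared with untreated controls, treated plants received a visual injury score on a 0–100 scale around 10 days after application. The compound, in a non-phytotoxic solvent with surfactant, was given as a preemergence soil spray or postemergence at the one- to two-leaf stage.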

[5] = tested on: ragweed (common ragweed, Ambrosia elatior); assay: Test A preemergence, visual plant response rating; settings: for Ragweed plant response rating: 125 g ai/ha, preemergence, 0 to 100 scale, 0 no effect, 100 complete control; for Ragweed plant response rating (0 to 100 scale): 500 g ai/ha Preemergence, approx. 10 days
How it was run: as §2

[6] = tested on: Italian ryegrass (Lolium multiflorum); assay: Test A preemergence, visual plant response rating; settings: for Ryegrass, Italian plant response rating: 125 g ai/ha, preemergence, 0 to 100 scale, 0 no effect, 100 complete control; for Ryegrass, Italian plant response rating (0 to 100 scale): 500 g ai/ha Preemergence, approx. 10 days
How it was run: as §2

kochia (Kochia scoparia) [7] = assay: Test A preemergence, visual plant response rating; settings: for Kochia plant response rating: 125 g ai/ha, preemergence, 0 to 100 scale, 0 no effect, 100 complete control; for Kochia plant response rating (0 to 100 scale): 500 g ai/ha Preemergence, approx. 10 days
How it was run: as §2

[8] = tested on: foxtail, green (green foxtail, Setaria viridis); assay: Test A preemergence, visual plant response rating; settings: for Foxtail, Green plant response rating: 125 g ai/ha, preemergence, 0 to 100 scale, 0 no effect, 100 complete control; for Foxtail, Green plant response rating (0 to 100 scale): 500 g ai/ha Preemergence, approx. 10 days
How it was run: as §2

[9] = tested on: pigweed (Amaranthus retroflexus); assay: Test A preemergence, visual plant response rating; settings: for Pigweed plant response rating: 125 g ai/ha, preemergence, 0 to 100 scale, 0 no effect, 100 complete control; for Pigweed plant response rating (0 to 100 scale): 500 g ai/ha Preemergence, approx. 10 days
How it was run: as §2

[10] = tested on: barnyardgrass (Echinochloa crus-galli); assay: Test A postemergence, visual plant response rating; settings: for Barnyardgrass plant response rating (0 to 100 scale): 500 g ai/ha, postemergence, 0 is no effect, 100 is complete control; for Barnyardgrass plant response rating: Postemergence, 125 g ai/ha, 0 to 100 scale (0 no effect, 100 complete control)
How it was run: as §2

[11] = tested on: blackgrass (Alopecurus myosuroides); assay: Test A postemergence, visual plant response rating; settings: for Blackgrass plant response rating (0 to 100 scale): 500 g ai/ha, postemergence, 0 is no effect, 100 is complete control; for Blackgrass plant response rating: Postemergence, 125 g ai/ha, 0 to 100 scale (0 no effect, 100 complete control)
How it was run: as §2

[12] = tested on: ragweed (common ragweed, Ambrosia elatior); assay: Test A postemergence, visual plant response rating; settings: for Ragweed plant response rating (0 to 100 scale): 500 g ai/ha, postemergence, 0 is no effect, 100 is complete control; for Ragweed plant response rating: Postemergence, 125 g ai/ha, 0 to 100 scale (0 no effect, 100 complete control)
How it was run: as §2

[13] = tested on: wheat (Triticum aestivum); assay: Test A postemergence, visual plant response rating; settings: for Wheat plant response rating: 0 to 100 scale (0 no effect, 100 complete control)
How it was run: as §2

[14] = tested on: Italian ryegrass (Lolium multiflorum); assay: Test A postemergence, visual plant response rating
How it was run: as §2

kochia (Kochia scoparia) [15] = assay: Test A postemergence, visual plant response rating; settings: for Kochia plant response rating (0 to 100 scale): 500 g ai/ha, postemergence, 0 is no effect, 100 is complete control; for Kochia plant response rating: Postemergence, 125 g ai/ha, 0 to 100 scale (0 no effect, 100 complete control)
How it was run: as §2

[16] = tested on: foxtail, green (green foxtail, Setaria viridis); assay: Test A postemergence, visual plant response rating; settings: for Foxtail, Green plant response rating (0 to 100 scale): 500 g ai/ha, postemergence, 0 is no effect, 100 is complete control; for Foxtail, Green plant response rating: Postemergence, 125 g ai/ha, 0 to 100 scale (0 no effect, 100 complete control)
How it was run: as §2

[17] = tested on: galium (catchweed bedstraw, Galium aparine); assay: Test A postemergence, visual plant response rating; settings: for Galium plant response rating (0 to 100 scale): 500 g ai/ha, postemergence, 0 is no effect, 100 is complete control; for Galium plant response rating: Postemergence, 125 g ai/ha, 0 to 100 scale (0 no effect, 100 complete control)
How it was run: as §2

corn (Zea mays) = assay: Test A postemergence, visual plant response rating; settings: for Corn plant response rating (0 to 100 scale): 500 g ai/ha, postemergence, 0 is no effect, 100 is complete control; for Corn plant response rating: Postemergence, 125 g ai/ha, 0 to 100 scale (0 no effect, 100 complete control)
How it was run: as §2

[18] = tested on: pigweed (Amaranthus retroflexus); assay: Test A postemergence, visual plant response rating; settings: for Pigweed plant response rating (0 to 100 scale): 500 g ai/ha, postemergence, 0 is no effect, 100 is complete control; for Pigweed plant response rating: Postemergence, 125 g ai/ha, 0 to 100 scale (0 no effect, 100 complete control)
How it was run: as §2

[19] = 500 g ai/ha, postemergence, 0 is no effect, 100 is complete control

## CON=C(c1cccc(C)c1)c1c(O)c(Cl)nn(C)c1=O [Compound 128]
[1]
  Plant response rating, Ducksalad (0 to 100 scale, 0 is no effect, 100 is complete control): 40
[2]
  Plant response rating, Barnyardgrass (0 to 100 scale, 0 is no effect, 100 is complete control): 0
[3]
  Plant response rating, Sedge, Umbrella (0 to 100 scale, 0 is no effect, 100 is complete control): 0
Rice (Oryza sativa)
  Plant response rating, Rice (0 to 100 scale, 0 is no effect, 100 is complete control): 30
[4]
  Barnyardgrass plant response rating: 0
  Barnyardgrass plant response rating (0 to 100 scale): 30
[5]
  Ragweed plant response rating: 60
  Ragweed plant response rating (0 to 100 scale): 80
[6]
  Ryegrass, Italian plant response rating: 0
  Ryegrass, Italian plant response rating (0 to 100 scale): 20
Kochia (Kochia scoparia) [7]
  Kochia plant response rating: 30
  Kochia plant response rating (0 to 100 scale): 80
[8]
  Foxtail, Green plant response rating: 0
  Foxtail, Green plant response rating (0 to 100 scale): 10
[9]
  Pigweed plant response rating: 100
  Pigweed plant response rating (0 to 100 scale): 80
[10]
  Barnyardgrass plant response rating (0 to 100 scale): 30
  Barnyardgrass plant response rating: 10
[11]
  Blackgrass plant response rating (0 to 100 scale): 10
  Blackgrass plant response rating: 0
[12]
  Ragweed plant response rating (0 to 100 scale): 80
  Ragweed plant response rating: 50
[13]; [19]
  Wheat plant response rating (0 to 100 scale): 10
[13]; Postemergence, 125 g ai/ha
  Wheat plant response rating: 0
[14]; [19]
  Ryegrass, Italian plant response rating (0 to 100 scale): 10
[14]; Postemergence, 125 g ai/ha, 0 to 100 scale (0 no effect, 100 complete control)
  Ryegrass, Italian plant response rating: 0
Kochia (Kochia scoparia) [15]
  Kochia plant response rating (0 to 100 scale): 70
  Kochia plant response rating: 50
[16]
  Foxtail, Green plant response rating (0 to 100 scale): 30
  Foxtail, Green plant response rating: 20
[17]
  Galium plant response rating (0 to 100 scale): 90
  Galium plant response rating: 70
Corn (Zea mays)
  Corn plant response rating (0 to 100 scale): 0
  Corn plant response rating: 0
[18]
  Pigweed plant response rating (0 to 100 scale): 60
  Pigweed plant response rating: 30

## CO/N=C(\c1cccc(S(C)(=O)=O)c1)c1c(O)c(C)nn(C)c1=O [Compound 148]
[1]
  Plant response rating, Ducksalad (0 to 100 scale, 0 is no effect, 100 is complete control): 0
[2]
  Plant response rating, Barnyardgrass (0 to 100 scale, 0 is no effect, 100 is complete control): 0
[3]
  Plant response rating, Sedge, Umbrella (0 to 100 scale, 0 is no effect, 100 is complete control): 0
Rice (Oryza sativa)
  Plant response rating, Rice (0 to 100 scale, 0 is no effect, 100 is complete control): 0
[4]
  Barnyardgrass plant response rating: 0
  Barnyardgrass plant response rating (0 to 100 scale): 0
[5]
  Ragweed plant response rating: 0
  Ragweed plant response rating (0 to 100 scale): 0
[6]
  Ryegrass, Italian plant response rating: 0
  Ryegrass, Italian plant response rating (0 to 100 scale): 0
Kochia (Kochia scoparia) [7]
  Kochia plant response rating: 0
  Kochia plant response rating (0 to 100 scale): 0
[8]
  Foxtail, Green plant response rating: 0
  Foxtail, Green plant response rating (0 to 100 scale): 0
[9]
  Pigweed plant response rating: 0
  Pigweed plant response rating (0 to 100 scale): 0
[10]
  Barnyardgrass plant response rating (0 to 100 scale): 0
  Barnyardgrass plant response rating: 0
[11]
  Blackgrass plant response rating (0 to 100 scale): 0
  Blackgrass plant response rating: 0
[12]
  Ragweed plant response rating (0 to 100 scale): 0
  Ragweed plant response rating: 0
[13]; Postemergence, 500 g ai/ha
  Wheat plant response rating: 0
[13]; Postemergence, approx. 10 days
  Wheat plant response rating (0 to 100 scale): 0
[14]; [19]
  Ryegrass, Italian plant response rating (0 to 100 scale): 0
[14]; Postemergence, rate not given, approx. 10 days
  Ryegrass, Italian plant response rating (0 to 100 scale): 0
Kochia (Kochia scoparia) [15]
  Kochia plant response rating (0 to 100 scale): 0
  Kochia plant response rating: 0
[16]
  Foxtail, Green plant response rating (0 to 100 scale): 0
  Foxtail, Green plant response rating: 0
[17]
  Galium plant response rating (0 to 100 scale): 0
  Galium plant response rating: 0
Corn (Zea mays)
  Corn plant response rating (0 to 100 scale): 0
  Corn plant response rating: 0
[18]
  Pigweed plant response rating (0 to 100 scale): 0
  Pigweed plant response rating: 0

Source: patent publication US20210045385A1, “PYRIDAZINONE-SUBSTITUTED KETOXIMES AS HERBICIDES” (FMC Corporation, priority 2018, published 2021)
